Source: patent publication US20210100905A1, “APPLICATION OF COMPOUND OR TRADITIONAL CHINESE MEDICINE EXTRACT IN PREPARATION OF NUCLEIC ACID DELIVERY AGENT, AND RELATED PRODUCTS” (INSTITUTE OF BASIC MEDICAL SCIENCES CHINESE ACADEMY OF …, priority 2018, published 2021)

Experiments:
[1] = system: A549 cells; assay: Digital PCR (ddPCR) detection of the efficiency of nucleic acid delivery by lipid; assay type: cell-based, human; settings: boiling or reverse evaporation method; samples after 6 hours (No. 39: reverse evaporation, 6 and 12 hours)
Description: 2.1 Experimental materials: A549 cells were purchased from the Cell Center of the Institute of Basic Medical Sciences, Chinese Academy of Medical Sciences, TRIzol lysis buffer was purchased from Sigma, High capacity cRNA Reverse Transcription Kit was purchased from ABI, USA, and the digital PCR related reagents were purchased from Bio-Rad USA.
(§1) 2.2 Experimental method: the total cellular RNA was collected and extracted by TRIzol lysis buffer according to the above methods, and reverse transcribed to cDNA using High capacity cRNA Reverse Transcription Kit, and the cDNA from different groups was subject to digital PCR reaction. Refering to the QX200 Droplet Reader and QuantaSoft Software manual for the protocols, the results were analyzed using QuantaSoft software.
as §1, with “method:” for “method: the”, “total” for “total cellular”, “method,” for “methods,”, “subjected” for “subject”, “Refer” for “Refering”, “protocols;” for “protocols,”
(§2) 2.2 Experimental method: Total RNA was collected and extracted by TRIzol lysis buffer according to the above method, and reverse transcribed to cDNA using TaqMan™ MicroRNA Reverse Transcription KitHigh, and the cDNA from different groups was subjected to digital PCR reaction. Refer to the QX200 Droplet Reader and QuantaSoft Software manual for the protocols; the results were analyzed using QuantaSoft software.
as §2, with “reversed” for “reverse transcribed”, “High capacity cRNA” for “TaqMan™ MicroRNA”, “Kit,” for “KitHigh,”

[2] = system: A549 cell (human lung adenocarcinoma cell); assay: In vitro delivery of lipid nucleic acid mixture, RT-qPCR of intracellular small RNA; assay type: cell-based; settings: single lipid prepared by boiling or reverse evaporation method; RNA 100 nM; FIGS. 76, 91, 96, 99, 104, 106, 107
Description: 3.1 NCI-N87 cell (gastric cancer cell), MRC-5 cell (lung fibroblast), A549 cell (lung cancer cell) were cultured to logarithmic growth phase, and then plated to a six-well plate at cell density of 1×10^6/2 mL medium/well; MRC-5 cell was cultured in Eagle's MEM medium (MEM, Gibco); A549 cell was cultured in Ham's F-12 medium (HyClone); NCI-N87 cell was cultured in RPMI-1640 medium (HyClone); followed by incubation overnight at 37° C., and the follow-up experiments were performed after the cells were attached to the walls.
3.3 After co-incubation with the small RNA for 3 hours, the cells were washed 2-3 times with PBS. The cells were harvested with TRIzol lysis buffer, and the total RNA was extracted. The abundance of small RNA that entered cells was detected by RT-qPCR, and the localization of RNA was detected by fluorescence in situ hybridization; protocols of each detection method were as follows:
1) The sRNA was reverse transcribed to cDNA: Reverse Transcription Kit (High-Capacity cDNA Reverse Transcription Kits, Applied Biosystems, cat. No. 4368813) was used to reverse transcribe sRNA into cDNA by stem-loop method, and the reverse transcription system was as follows: RNA template (150 ng/μl) 10 μl, 10×RT buffer, 2.0 μl, 25× dNTP Mix (100 mM) 0.8 μl, U6 RT stem-loop primer 2.0 μl, HJT-sRNA-RT-m7 stem-loop primer 2.0 μl, MultiScribe™ reverse transcriptase 1.0 μl, RNase inhibitor 1.0 μl, nuclease-free H2O 1.2 μl, loaded into a PCR reactor after brief centrifugation, the reaction conditions were as follows: (1) 25° C., 10 min; (2) 37° C., 120 min; (3) 85° C., 5 min; (4) 4° C., termination of the reaction. 20 μl RNase-free ddH2O was added to make up the final volume to 40 μl after the reaction. The stem-loop primer used in the reverse transcription process was synthesized by Beijing Tsingke Biotechnology Co., Ltd.
2) Quantitative PCR amplification reaction: the qPCR reaction system has a total volume of 10 μl, containing: 5 μL 2×SYBR Green Master Mix, 0.5 μl forward primer ([…]), 0.5 μl reverse primer (10 μM), 1 μl cDNA by reverse transcription, 3 RNase-free dH2O. LightCycler 480 fluorescence quantitative PCR instrument was used, and the PCR reaction conditions were: 95° C. for 5 min for pre-denaturation, followed by PCR amplification cycle: (1) 95° C., 10 s; (2) 55° C., 10 s; (3) 72° C. , 20 s; a total of 40 cycles; 40° C. for 10 s in the end to cool down. Both the forward and reverse primers of the amplification reaction were designed and synthesized by Beijing Tsingke Biotechnology Co., Ltd.
3) The relative expression level was calculated by 2-ΔCt method.
100 μl lipid in diethyl ether solution was prepared, and grouped according to the lipid numbers shown in Table 1 (the lipid concentrations are shown in the table below). To the lipid solution was added 20 μl nucleic acid solution (HJT sRNA or siRNA) at the volume ratio of 5:1, and sonicated for after 3 min. The diethyl ether was removed by evaporation at 55° C., and then 100 μl DEPC water was added for hydration to give nucleic acid lipid mixture.
100 μL of the nucleic acid solution (HJT sRNA or siRNA) was added to 2-5 μL of the lipid in chloroform (the concentration was shown in Table 1), mixed, and heated at 80-100° C. for 15-30 min to give nucleic acid lipid mixture.
3.1.1 MRC-5 cell (pulmonary embryonic fibroblast), A549 cell (human lung adenocarcinoma cell), Caco-2 cell (human colon adenocarcinoma cell) (purchased from the Cell Resource Center of the Institute of Basic Medical Sciences, Chinese Academy of Medical Sciences) were cultured to logarithmic growth phase, then plated into 12-well plates at a cell density of 6×10^5/1 mL medium/well; MRC-5 and Caco-2 cells were cultured in Eagle's MEM medium (MEM, Gibco); A549 cells were cultured in Ham's F-12 medium (HyClone); followed by incubation overnight at 37° C., and the follow-up experiments were performed after the cells were attached to the walls. […]

CCCCCC/C=C\CCCCCCCCCC(=O)O[C@H](COC(=O)CCCCCCC/C=C\CCCCCC)COP(=O)(O)OCCN [No. 39, (2-aminoethoxy) [(2R)-3-[(9Z)-hexadec-9-enoyloxy]-2-[(11Z)-octadec-11-enoyloxy]propoxy] phosphinic acid]
delivery of HJT-sRNA-m7 dsRNA into A549 cells (ddPCR) [1]: could effectively deliver HJT-sRNA-m7 dsRNA into A549 cells
delivery of HJT-sRNA-m7 double-stranded RNA into A549 cells (real-time PCR) [2]: delivered double-stranded RNA into A549 cells
